From ChEMBL document CHEMBL1201862, “PubChem BioAssay data set” (2004)
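Interpolation was linear, between the two tested concentrations surrounding the appropriate level; five concentrations were tested over 48 hours in 96-well plates. GI50 = concentration required for 50% inhibition of growth.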 The source made the active and inactive calls. Rule as the data show it: active = GI50 up to about 1.1 µM and inactive = higher.

How the values were obtained:
Experiment in all cases: DTP human tumour cell line panel, 48 h
Hs-578T = test system: Hs-578T
OVCAR-3 = test system: OVCAR-3
EKVX = test system: EKVX
SK-OV-3 = test system: SK-OV-3
ACHN = test system: ACHN
MOLT-4 = test system: MOLT-4
NCI-H23 = test system: NCI-H23
MCF7 = test system: MCF7
A498 = test system: A498
K562 = test system: K562
TK-10 = test system: TK-10
SNB-75 = test system: SNB-75
OVCAR-5 = test system: OVCAR-5
SF-295 = test system: SF-295
SW-620 = test system: SW-620
HCT-116 = test system: HCT-116
786-0 = test system: 786-0
HCT-15 = test system: HCT-15
CAKI-1 = test system: CAKI-1
SK-MEL-28 = test system: SK-MEL-28
DU-145 = test system: DU-145
SK-MEL-5 = test system: SK-MEL-5
PC-3 = test system: PC-3
HOP-92 = test system: HOP-92
MDA-N = test system: MDA-N
NCI-H226 = test system: NCI-H226
HT-29 = test system: HT-29
T47D = test system: T47D
IGROV-1 = test system: IGROV-1
HL-60 = test system: HL-60
SNB-19 = test system: SNB-19
CCRF-CEM = test system: CCRF-CEM
OVCAR-8 = test system: OVCAR-8
M14 = test system: M14
MDA-MB-435 = test system: MDA-MB-435
SF-539 = test system: SF-539
UO-31 = test system: UO-31
U-251 = test system: U-251
LOX IMVI = test system: LOX IMVI
NCI/ADR-RES = test system: NCI/ADR-RES
OVCAR-4 = test system: OVCAR-4
SN12C = test system: SN12C
COLO 205 = test system: COLO 205
A549 = test system: A549
SK-MEL-2 = test system: SK-MEL-2
MDA-MB-231 = test system: MDA-MB-231
SF-268 = test system: SF-268
HCC 2998 = test system: HCC 2998
KM12 = test system: KM12
UACC-257 = test system: UACC-257
NCI-H460 = test system: NCI-H460
NCI-H522 = test system: NCI-H522
BT-549 = test system: BT-549
RPMI-8226 = test system: RPMI-8226
UACC-62 = test system: UACC-62

Measured: GI50

COc1ccc(NC(=O)C(=O)C(CC2C(=O)NC(=S)NC2=O)C(=O)c2ccc3ccccc3c2)c([N+](=O)[O-])c1 (stereo not given)
> 100 µM: HCT-15
inactive: Hs-578T > 100 µM | OVCAR-3 > 100 µM | EKVX > 100 µM | SK-OV-3 > 100 µM | ACHN > 100 µM | MOLT-4 > 100 µM | NCI-H23 > 100 µM | MCF7 > 100 µM | A498 > 100 µM | K562 > 100 µM | TK-10 > 100 µM | SNB-75 > 100 µM | OVCAR-5 > 100 µM | SF-295 > 100 µM | SW-620 > 100 µM | HCT-116 > 100 µM | 786-0 > 100 µM | CAKI-1 > 100 µM | SK-MEL-28 > 100 µM | DU-145 > 100 µM | SK-MEL-5 > 100 µM | PC-3 > 100 µM | HOP-92 > 100 µM | MDA-N > 100 µM | NCI-H226 > 100 µM | HT-29 > 100 µM | T47D > 100 µM | IGROV-1 > 100 µM | HL-60 > 100 µM | SNB-19 > 100 µM | CCRF-CEM 8.99 µM | OVCAR-8 > 100 µM | M14 > 100 µM | MDA-MB-435 > 100 µM | SF-539 > 100 µM | UO-31 > 100 µM | U-251 > 100 µM | LOX IMVI > 100 µM | NCI/ADR-RES > 100 µM | OVCAR-4 > 100 µM | SN12C > 100 µM | COLO 205 > 100 µM | A549 > 100 µM | SK-MEL-2 > 100 µM | MDA-MB-231 > 100 µM | SF-268 > 100 µM | HCC 2998 > 100 µM | KM12 > 100 µM | UACC-257 > 100 µM | NCI-H460 > 100 µM | NCI-H522 > 100 µM | BT-549 > 100 µM | RPMI-8226 76.9 µM | UACC-62 > 100 µM
